Reference: US6706718B2, “3-(2,4-dimethylthiazol-5-yl)indeno[1,2-c]pyrazol-4-one derivatives and their uses” (Bristol-Myers Squibb Company, priority 2000, dated 2004)
Where a name gives a salt, the structure may show the parent alone.

melting point [°C]	Structure (SMILES)
278	Cc1nc(C)c(-c2[nH]nc3c2C(=O)c2c(NC(=O)NN4CCN(C)CC4)cccc2-3)s1 (as salt: hydrochloride)
> 300	Cc1nc(C)c(-c2[nH]nc3c2C(=O)c2c(NC(=O)NN4CCOCC4)cccc2-3)s1 (as salt: TFA) [Example 2, 3-(2,4-dimethylthiazol-5-yl)-5-(morpholinocarbamoylamino)indeno[1,2-c]pyrazol-4-one]
